In ChEMBL document CHEMBL1152939, “p-Terphenyls from the fruiting bodies of Paxillus curtisii and their antioxidant properties” (Bioorg Med Chem, 2009) one finds IC50 and Activity data, which are given here for 19 compounds.

Assay [1] concerns Radical scavenging activity. The assay can be described thus: Antioxidant activity assessed as DPPH radical scavenging activity after 30 mins. The assay is classed as functional. A general note: DPPH is a stable violet radical that fades when it is reduced.
The nature of assay [2]: Antioxidant activity assessed as ABTS radical scavenging activity after 6 mins by cation decolorization assay. The format is functional.
Assay [3] can be described thus: Antioxidant activity assessed as superoxide radical anion scavenging activity after 30 mins by xanthine/xanthine oxidase method. The format is functional.
Another assay has as its system Nucleic Acid. The assay can be described thus: Protection against ferrous and hydrogen peroxide-induced single strand breakage of pBR322 DNA at 50 uM after 30 mins using ethium bromide staining. Particulars: Escherichia coli.
Assay [4] is described as follows: Antioxidant activity against ferrous and hydrogen peroxide-induced hydroxyl radical assessed inhibition of radical-mediated 2-deoxyribose damage at 100 uM after 45 mins. The assay is classed as functional.

The source made the active and inactive calls. The rule behind the calls is not given here.

In the case of `CC(=O)Oc1c(O)c(-c2ccc(O)cc2)c(OC(C)=O)c(O)c1-c1ccc(O)cc1`, the IC50 (in general, the concentration needed to halve the response being measured) in assay [1] was above 500 µM; in assay [2], 8.77 µM; in assay [3] it was above 500 µM. In addition, the outcome (in the assay on Nucleic Acid; in assay [4]) was Active.

As to `CC(=O)N(O)CCCCCNC(=O)CCC(=O)N(O)CCCCCNC(=O)CCC(=O)N(O)CCCCCN`, the result in the assay on Nucleic Acid was Active.

Regarding `COc1ccc(O)c(C(C)(C)C)c1.COc1ccc(O)cc1C(C)(C)C` [BUTYLATED HYDROXYANISOLE], the IC50 in assay [1] is 83 µM; in assay [2] it was 10.7 µM; in assay [3], above 500 µM. The result with Nucleic Acid was inactive.

As for `O=C(O)/C=C/c1ccc(O)c(O)c1` [CAFFEIC ACID], the half-maximal inhibitory concentration (IC50) in assay [1] was found to be 21.1 µM; in assay [2], 5.37 µM; in assay [3] it was 58 µM.

For the compound `CC(=O)Oc1c(OC(=O)C[C@@H](C)O)c(-c2ccc(O)cc2)c(OC(=O)CCc2ccccc2)c(OC(=O)C[C@@H](C)O)c1-c1ccc(O)cc1` [CURTISIAN E], the IC50 in assay [1], in assay [2] and in assay [3] was above 500 µM each time. For the same compound, the result (with Nucleic Acid; in assay [4]) was Active.

Turning to `CC(=O)O[C@H](C)CC(=O)Oc1c(O)c(-c2ccc(O)cc2)c(OC(=O)C[C@@H](C)O)c(O)c1-c1ccc(O)cc1` [CURTISIAN I], the IC50 in assay [1] is above 500 µM; in assay [2], 60.4 µM; in assay [3], above 500 µM. Also, the result in the assay with Nucleic Acid was Active.

As to `CC(=O)O[C@H](C)CC(=O)Oc1c(O)c(-c2ccc(O)cc2)c(OC(=O)CCc2ccccc2)c(O)c1-c1ccc(O)cc1` [CURTISIAN J], the values for the concentration for half-maximal inhibition (IC50) in assay [1], in assay [2] and in assay [3] were above 500 µM, 13.5 µM and above 500 µM, respectively. In addition, in the assay on Nucleic Acid, the outcome was Active.

Turning to `C[C@@H](O)CC(=O)Oc1c(O)c(-c2ccc(O)cc2)c(OC(=O)CCc2ccccc2)c(O)c1-c1ccc(O)cc1` [CURTISIAN K], the figures for the IC50 in assay [1], in assay [2] and in assay [3] were above 500 µM, 11.3 µM and above 500 µM, respectively. The outcome (with Nucleic Acid; in assay [4]) was Active.

As to `CC(=O)Oc1c(O)c(-c2ccc(O)cc2)c(OC(=O)C[C@@H](C)O)c(O)c1-c1ccc(O)cc1` [CURTISIAN L], the figures for the concentration for half-maximal inhibition (IC50) in assay [1], in assay [2] and in assay [3] were above 500 µM, 18.6 µM and above 500 µM, respectively. Further, in the assay with Nucleic Acid, the outcome was Active.

As for `CC(=O)O[C@H](C)CC(=O)Oc1c(O)c(-c2ccc(O)cc2)c(OC(=O)C[C@@H](C)OC(C)=O)c(O)c1-c1ccc(O)cc1` [CURTISIAN M], the IC50 was above 500 µM in assay [1], 8.15 µM in assay [2] and above 500 µM in assay [3]. The outcome (in the assay with Nucleic Acid; in assay [4]) was Active.

As for `CC(=O)Oc1c(O)c(-c2ccc(O)cc2)c(OC(=O)C[C@@H](C)OC(C)=O)c(O)c1-c1ccc(O)cc1` [CURTISIAN N], the results for the concentration for half-maximal inhibition (IC50) in assay [1], in assay [2] and in assay [3] were above 500 µM, 5.5 µM and above 500 µM, respectively. Also, the result (in the assay on Nucleic Acid; in assay [4]) was Active.

With `CCCC(=O)Oc1c(O)c(-c2ccc(O)cc2)c(OC(C)=O)c(O)c1-c1ccc(O)cc1` [CURTISIAN O], the IC50 is above 500 µM in assay [1], 7.11 µM in assay [2] and above 500 µM in assay [3]. Besides, the outcome (with Nucleic Acid; in assay [4]) was Active.

For `CC(=O)Oc1c(O)c(-c2ccc(O)cc2)c(OC(=O)CCc2ccccc2)c(O)c1-c1ccc(O)cc1` [CURTISIAN P], the values for the IC50 in assay [1], in assay [2] and in assay [3] were above 500 µM, 6.44 µM and above 500 µM, respectively. The result in the assay on Nucleic Acid was Active.

On to `O=C(CCc1ccccc1)Oc1c(O)c(-c2ccc(O)cc2)c(OC(=O)CCc2ccccc2)c(O)c1-c1ccc(O)cc1` [CURTISIAN R], for which the concentration for half-maximal inhibition (IC50) is above 500 µM in assay [1], 8.02 µM in assay [2] and above 500 µM in assay [3]. Moreover, the result in the assay with Nucleic Acid was Active.

As to `CCCC(=O)Oc1c(O)c(-c2ccc(O)cc2)c(OC(=O)CCc2ccccc2)c(O)c1-c1ccc(O)cc1` [CURTISIAN S], the IC50 in assay [1] was above 500 µM; in assay [2], 8.16 µM; in assay [3], above 500 µM. Further, the result in the assay with Nucleic Acid was Active.

Consider `CC(=O)O[C@H](C)CC(=O)Oc1c(O)c(-c2ccc(O)cc2)c(OC(=O)c2ccccc2)c(O)c1-c1ccc(O)cc1` [CURTISIAN T], for which the IC50 in assay [1] is above 500 µM; in assay [2], 8.43 µM; in assay [3], above 500 µM. In addition, the outcome in the assay on Nucleic Acid was Active.

Take `CC(=O)Oc1c(OC(=O)C[C@@H](C)O)c(-c2ccc(O)cc2)c(OC(C)=O)c(OC(=O)C[C@@H](C)O)c1-c1ccc(O)cc1` [CURTISIAN U]: the IC50 in assay [1], in assay [2] and in assay [3] was above 500 µM in each case. In addition, the result in the assay on Nucleic Acid was Active.

In the case of `CC(=O)Oc1c(OC(=O)CCc2ccccc2)c(-c2ccc(O)cc2)c(OC(=O)C[C@@H](C)O)c(OC(=O)C[C@@H](C)O)c1-c1ccc(O)cc1` [CURTISIAN V], the IC50 in assay [1], in assay [2] and in assay [3] was above 500 µM each time. Moreover, the outcome in the assay with Nucleic Acid was Active.

Regarding `Cc1c(C)c2c(c(C)c1O)CCC(C)(C(=O)O)O2` (stereo not drawn) [TROLOX], the values for the IC50 in assay [1], in assay [2] and in assay [3] were 33 µM, 7.91 µM and above 500 µM, respectively. Further, the outcome in the assay with Nucleic Acid was Active.
